These are literature values, as cited in US20070065374A1, “Nanoparticulate leukotriene receptor antagonist/corticosteroid formulations” (Elan Pharma International Limited, priority 2005, published 2007).

The conditions of data set [1]: for time to peak plasma concentrations: after oral administration.
The conditions of data set [2]: since the approval of zafirlukast.

Molecules are shown by their SMILES. Where two headings read alike, the source gives them in different places.

In the case of `CC(C)(O)c1ccccc1CC[C@@H](SCC1(CC(=O)O)CC1)c1cccc(/C=C/c2ccc3ccc(Cl)cc3n2)c1` [Montelukast], the “effect of food on oral bioavailability” value in data set [1] (5 mg tablet (pediatric dose)) was “reduced by food”; in data set [1] (10 mg tablet (adult dose)), “unaffected by food”. Moreover, in data set [1], the “time to peak plasma concentrations” value is listed as “approximately three”.

Take `COc1cc(C(=O)NS(=O)(=O)c2ccccc2C)ccc1Cc1cn(C)c2ccc(NC(=O)OC3CCCC3)cc12` [Zafirlukast]: the “time to peak plasma concentrations” value in data set [1] is “approximately three”. Besides, the “reduction of bioavailability by food” value in data set [1] (oral, in 75% of patients) is “approximately 40%”. The Churg-Strauss syndrome reported entry in data set [2] was “at least eight”.
